Data as given in paper PMC9208212, “Comparison of anti-cancer effects of novel protein disulphide isomerase (PDI) inhibitors in breast cancer cells characterized by high and low PDIA17 expression” (Cancer Cell International, 2022).

Experiments:
PDIA1 = details: recombinant human PDIA1, insulin/DTT turbidimetry, pH 7.6; cited from earlier work
MCF-7 cells [1] = experiment: MTT cell viability assay, MCF-7; assay type: cell-based; details: Homo sapiens, MCF7; MCF-7 (high PDIA17), 72 h; read-out: IC50, MTT proliferation
Experimental: (§1) The proliferation rate of the cells was measured using an MTT assay. (see Additional file 1: Methods for details). IC50 parameter was determined as previously described.
(§2) The proliferation rate of the cells was measured using an MTT assay. The cells were seeded on 96-well plates (Sarstedt, Warsaw, Poland) at a density of MDA-MB-231, BALB/3T3 and MCF10A 1×10^4 cells/well, MCF-7 0.75×10^4 cells/well. Cells were incubated in the appropriate culture medium for 24 h before adding the tested compounds. Cells were then treated with each compound in four concentrations in the range 100–0.1 µg/mL. […] Absorbance was measured using a Bio Tek Hybrid H4 reader (BioTek Instruments, USA) at 570 nm wavelength.
(§3) Compounds at each concentration were tested in triplicate in a single experiment, and each experiment was repeated at least three times independently.

[2] = MTT cytotoxicity against regular cell line BALB/3T3; assay type: cell-based; details: balb/3t3 cells, BALB/3T3 mouse fibroblasts, read-out: IC50, cytotoxicity against regular cell line
Experimental: as §1
(§4) To test cytotoxicity of compounds used in this study against regular cell lines, BALB/3T3 and MCF10A cells were used, mouse fibroblast and human breast epithelial cell line, respectively.
as §2, §3

MCF-7 cells [3] = experiment: Cancer cell adhesion to collagen type I, MCF-7; assay type: cell-based; details: Homo sapiens, MCF7
Experimental: (§5) Detailed procedures for the cancer cell adhesion studies are described in Additional file 1: Methods.
(§6) Briefly, 96-well plates (Corning, Tewksbury, MA, USA) were coated with collagen type I at a concentration of 10 μg/mL (Sigma-Aldrich, Steinheim, Germany) and incubated at 4°C overnight. After 24 h, the plates were blocked with 1% bovine serum albumin (BSA) (Sigma-Aldrich, Steinheim, Germany) in DPBS buffer (Gibco, Scotland, UK) for 60 minutes at 37°C. […] Then, cancer cells were left to adhere to collagen I for 30 min at 37°C. Non-adherent cells were gently washed twice with DPBS, and attached cells were counted in nine randomly selected visual fields for each well using a CQ1 image cytometer (Yokogawa, Tokyo, Japan). Experiments were conducted twice in six technical replicates. The images were analyzed using Columbus 2.4.2 software (Perkin Elmer, Waltham, MA, USA).

MDA-MB-231 cells [4] = experiment: MTT cell viability assay, MDA-MB-231; assay type: cell-based; details: Homo sapiens; MDA-MB-231 (low PDIA17), 72 h; read-out: IC50, MTT proliferation
Experimental: as §1, §2, §3

MDA-MB-231 cells [5] = experiment: ECIS wound healing migration assay, MDA-MB-231; assay type: cell-based; details: Homo sapiens, tested 10, 30, 100 µM, read-out: Concentration effectively inhibiting migration (ECIS wounding assay)
Source text: (§7) The migration of MCF-7 and MDA-MB-231 cells was monitored using real-time quantitative wound healing assays and 96W1E + ECIS arrays (Applied Biophysics, Troy, NY, USA) according to the procedure reported by Stojak et al. with minor modifications and C-3353 inhibitor as a tested compound. Detailed procedures for the ECIS studies are described in Additional file 1: Methods.
(§8) The migration of MCF-7 and MDA-MB-231 cells was monitored using real-time quantitative wound healing assays and 96W1E+ ECIS arrays (Applied Biophysics, Troy, NY, USA) according to the procedure reported by Stojak et al. (2020) with minor modifications. To this end, MDA-MB-231 cells were seeded at a density of 3 × 10^4 per well and MCF-7 cells at a density of 6 × 10^4 cells per well. Before the cell seeding procedure, the 96W1E+ plate was pretreated with 10 mM L-cysteine (Sigma-Aldrich, Steinheim, Germany) according to the manufacturer’s instruction. Immediately after cell seeding, resistance (Ω), capacitance (µF) and impedance (Ω) measurements were initiated at frequencies from 250 Hz to 64 kHz (250, 500, 1000, 2000, 4000, 8000, 16,000, 32,000 and 64,000 Hz) using the multiple frequency time mode. […] The healing process was measured continuously as cells migrated onto the electrode. The area under the curve (AUC) was quantified and normalized to the untreated control. […]

[6] = MTT cytotoxicity against regular cell line MCF10A; assay type: cell-based; details: MCF10A human breast epithelial cells, read-out: IC50, cytotoxicity against regular cell line
Experimental: as §1, §4, §2, §3

PDIA17 = biological target: T1, PDIA17 (Homo sapiens, UniProt O95994); experiment: Insulin reduction turbidimetry assay, PDIA17; assay type: biochemical
T1 construct: PDIA17 (recombinant protein ab64013, human, full length, E.coli, Abcam, Cambridge); purchased Abcam ab64013; host or cells: E. coli
T1 sequence (O95994 21-175): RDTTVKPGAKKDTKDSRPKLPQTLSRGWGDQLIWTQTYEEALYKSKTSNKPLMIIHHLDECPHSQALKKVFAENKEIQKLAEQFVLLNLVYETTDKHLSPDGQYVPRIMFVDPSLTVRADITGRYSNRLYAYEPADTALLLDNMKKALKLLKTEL
Experimental: The PDI inhibitor activity towards PDIA1, PDIA3 and PDIA17 was assessed as an increase in disulphide bond reduction in human insulin in the presence of DL-dithiotreitol (DTT) causing aggregation of its β-chain, analyzed by turbidimetry as presented earlier by Kalvins et al. and Chlopicki et al. (see Additional file 1: Methods for more details).
The PDI inhibitors’ activity towards PDIA1, PDIA3 and PDIA17 was assessed as an increase in disulphide bond reduction in human insulin in the presence of DTT causing aggregation of its β-chain, analyzed by turbidimetry as presented earlier by Kalvins et al. 2021 and Chlopicki et al., 2021. Briefly, the assay mixture for 96-well plates was prepared by dissolving in […] phosphate buffer (pH 7.6 for activity testing of PDIA1, PDIA3 and pH 8.0 for PDIA17), 6 µg/ml (96 nM) of PDIA1 (recombinant protein MBS9422429, human, full length, 18-508aa His-tag, E.coli, MyBioSource, San Diego, CA, USA), PDIA3 (recombinant protein MBS203583, 25-505aa, human, His-tag, E.coli, MyBioSource, San Diego, CA, USA) or PDIA17 (recombinant protein ab64013, human, full length, E.coli, Abcam, Cambridge), 2 mM EDTA and 0.08 mM DTT (D9779 Sigma-Aldrich, Steinheim, Germany). Stock solutions of C-3353, C-3380, C-3389 and C-3399 were freshly prepared in dimethyl sulfoxide (DMSO) and subsequently diluted to keep the final DMSO concentration in the assay mixture below 1%. Calculated amounts of compounds solutions were added into test wells, and the reaction was started by the addition of insulin (insulin 91077C, human recombinant; Sigma-Aldrich, Steinheim, Germany) and 0.08 mM of DTT. The final concentration of insulin and DTT in the assay mixture was 0.15 and 0.16 mM, respectively. The reaction rate was monitored at 650 nm on a Microplate Reader Infinite M1000 PRO for 60 minutes at 37°C. Turbidity values for the wells containing only the PDI isoform tested (background values) were subtracted from the turbidity values of the wells containing the tested PDI isoform and selected inhibitors. […]

MCF-7 cells [7] = experiment: ECIS wound healing migration assay, MCF-7; assay type: cell-based; details: Homo sapiens, MCF7, tested 10, 30, 100 µM, read-out: Concentration substantially reducing migration rate (ECIS wounding assay)
Source text: as §7, §8

MDA-MB-231 cells [8] = experiment: Cancer cell adhesion to collagen type I, MDA-MB-231; assay type: cell-based; details: Homo sapiens
Experimental: as §5, §6

PDIA3 = details: recombinant human PDIA3, insulin/DTT turbidimetry, pH 7.6; cited from earlier work

| Structure (SMILES) | IC50 (PDIA1) [µM] | IC50 PDIA1 (PDIA1) | IC50 (MCF-7 cells [1]) [µM] | CC50 at 72 h [2] [µM] | minimal effective concentration (MCF-7 cells [3]; MCF-7, read-out: Concentration inhibiting adhesion to collagen) [µM] | IC50 (MDA-MB-231 cells [4]) [µM] | minimal effective concentration (MDA-MB-231 cells [5]) [µM] | CC50 at 72 h [6] [µM] | IC50 (PDIA17) [µM] | minimal effective concentration (MCF-7 cells [7]) [µM] | minimal effective concentration (MDA-MB-231 cells [8]; MDA-MB-231, read-out: Concentration inhibiting adhesion to collagen) [µM] | IC50 (PDIA3) [µM] | IC50 PDIA3 (PDIA3) | activity at 3 µM (MCF-7 cells [3]; MCF-7, inhibitor 3 µM) [%] | IC50 PDIA17 (PDIA17; recombinant human PDIA17, insulin/DTT turbidimetry, pH 8.0, n.a. = not active in range of concentrations used) | activity at 10 µM (MDA-MB-231 cells [8]; MDA-MB-231, inhibitor 10 µM) [%] |
| --- | --- | --- | --- | --- | --- | --- | --- | --- | --- | --- | --- | --- | --- | --- | --- | --- |
| COC(=O)C1CN1S(=O)(=O)c1ccc(F)cc1F (stereo not drawn) [Inhibitor C-3353] | 5 | inhibitory effect on PDIA1 | 22.5 ± 6.42 | > 360 | 3 | 87.4 ± 9.42 | 100 | 75.6 ± 4.05 | 20.1 | ≥ 30 | 50 | 143 | not on PDIA3 |  |  |  |
| COC(=O)C1CN1S(=O)(=O)c1ccc2c(N(C)C)cccc2c1 (stereo not drawn) [Inhibitor C-3399] | 0.12 |  | 11.1 ± 0.78 | 38.2 ± 10.3 |  | 8.69 ± 0.89 |  | 17.9 ± 1.15 | > 200 |  |  | 4 | low micromolar range | ~50 | not effective | ~75 |
